Source: ChEMBL document CHEMBL1201862, “PubChem BioAssay data set” (2004)
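Tested at 5 concentrations; 48 h exposure; 96-well plates; endpoints linearly interpolated, else capped at highest concentration. Here, GI50 denotes the concentration required for 50% inhibition of growth.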 Activity calls are given as the source filed them. Rule as the data show it: active = GI50 up to about 1.1 µM and inactive = higher.

Key:
Test in all cases: NCI tumour cell line growth inhibition, 48 h
[1] = system: 786-0
[2] = system: SNB-75
[3] = system: SK-MEL-2
[4] = system: NCI-H460
[5] = system: SNB-19
[6] = system: HL-60
[7] = system: COLO 205
[8] = system: ACHN
[9] = system: OVCAR-3
[10] = system: RPMI-8226
[11] = system: PC-3
[12] = system: LOX IMVI
[13] = system: HCT-15
[14] = system: K562
[15] = system: UACC-62
[16] = system: DU-145
[17] = system: SK-MEL-28
[18] = system: T47D
[19] = system: CCRF-CEM
[20] = system: A498

SMILES | GI50 [1] | GI50 [2] | GI50 [3] | GI50 [4] | GI50 [5] | GI50 [6] | GI50 [7] | GI50 [8] | GI50 [9] | GI50 [10] | GI50 [11] | GI50 [12] | GI50 [13] [nM] | GI50 [14] | GI50 [15] | GI50 [16] | GI50 [17] | GI50 [18] | GI50 [19] | GI50 [20]
CCC1CN2CCc3c([nH]c4ccccc34)[C@@](C(=O)OC)(c3cc4c(cc3OC)N(C)C3C(O)(C(=O)OC)C(C(=O)OC)C5(CC)C=CCN6CCC43C65)C[C@@H](C2)[C@@H]1C(C)(C)C (stereo not given in full) | 0.439 µM (active) | 0.337 µM (active) | 0.41 µM (active) | 0.393 µM (active) | 0.337 µM (active) | 0.305 µM (active) | 0.372 µM (active) | 0.6 µM (active) | 0.316 µM (active) | 0.469 µM (active) | 0.286 µM (active) | 0.34 µM (active) | 396 | 334 nM (active) | 0.494 µM (active) | 0.342 µM (active) | 0.652 µM (active) | 0.687 µM (active) | 348 nM (active) | 0.306 µM (active)
Cc1sc(C)c2c1C(=O)CC2N (stereo not given) | 7.98 µM (inactive) | > 50.1 µM (inactive) | > 100 µM (inactive) | 29.1 µM (inactive) | > 94.4 µM (inactive) | 6.64 µM (inactive) | 17.1 µM (inactive) | 16.8 µM (inactive) | 17.5 µM (inactive) | 2.7 µM (inactive) | 27.4 µM (inactive) | 13.1 µM (inactive) | 31300 | 4850 nM (inactive) | 75.3 µM (inactive) | 15.9 µM (inactive) | > 42.7 µM (inactive) | 17.4 µM (inactive) | 1040 nM (active) | > 100 µM (inactive)
COC1=C2CC(C)CC(OC)[C@@H](OC(=O)CCN)[C@H](C)/C=C(\C)C(OC(N)=O)C(OC)/C=C\C=C(/C)C(=O)NC(=CC1=O)C2=O (stereo not given in full) | 1.05 µM (active) | 20.8 µM (inactive) | 9.06 µM (inactive) | 11.1 µM (inactive) | 7.57 µM (inactive) | 0.256 µM (active) | 0.27 µM (active) | 0.773 µM (active) | 0.843 µM (active) | 0.871 µM (active) | 4.06 µM (inactive) | 0.897 µM (active) | 2430 | 269 nM (active) | 1.47 µM (inactive) | 8.57 µM (inactive) | 0.689 µM (active) | 0.486 µM (active) | 343 nM (active) | 17.3 µM (inactive)
COC(=O)/C=C\C(C#N)(C#N)/N=C/c1ccc(C)s1 | 1.69 µM (inactive) | 3.12 µM (inactive) | 5.48 µM (inactive) | 19.3 µM (inactive) | 18.7 µM (inactive) | 2.29 µM (inactive) | 1.43 µM (inactive) | 1.67 µM (inactive) | 3.94 µM (inactive) | 1.9 µM (inactive) | 2.63 µM (inactive) | 1.67 µM (inactive) | 1670 | 998 nM (active) | 15.2 µM (inactive) | 4.48 µM (inactive) | 4.28 µM (inactive) | 1.58 µM (inactive) | 84.7 nM (active) | 20.3 µM (inactive)
Cc1cc(C)n(C(=O)CSc2nc3ccc(I)cc3c(=O)n2Cc2ccccc2)n1 | 28.3 µM (inactive) | 25.3 µM (inactive) | 47.4 µM (inactive) | 36.4 µM (inactive) | 43.1 µM (inactive) | > 100 µM (inactive) | 59.7 µM (inactive) | 44.5 µM (inactive) | 58.6 µM (inactive) | > 100 µM (inactive) | 22.1 µM (inactive) | > 100 µM (inactive) | 30400 | > 100000 nM (inactive) | 80.5 µM (inactive) | 42 µM (inactive) | > 100 µM (inactive) | 23.2 µM (inactive) | 67100 nM (inactive) | 22.9 µM (inactive)
